Experimental data as given in patent publication US20190292189A1, “LIM KINASE INHIBITORS” (VIRONGY, LLC, priority 2016, published 2019).
Read-outs that look alike come from different tables or passages of the source.

Columns and labels:
ROCK-II = ROCK-II (Homo sapiens, UniProt O75116); experiment: ROCK-II biochemical counter-screen
Limk1 = Limk1 (Homo sapiens, UniProt P53667); experiment: Limk1 biochemical assay (Reaction Biology, 10-dose IC50); parameters: His; purchased Reaction Biology Corporation; host or cells: insect cells; settings: for Limk1 inhibition: compared with 14a, values only in FIG. 4
Sequence of Limk1 (P53667 285-638): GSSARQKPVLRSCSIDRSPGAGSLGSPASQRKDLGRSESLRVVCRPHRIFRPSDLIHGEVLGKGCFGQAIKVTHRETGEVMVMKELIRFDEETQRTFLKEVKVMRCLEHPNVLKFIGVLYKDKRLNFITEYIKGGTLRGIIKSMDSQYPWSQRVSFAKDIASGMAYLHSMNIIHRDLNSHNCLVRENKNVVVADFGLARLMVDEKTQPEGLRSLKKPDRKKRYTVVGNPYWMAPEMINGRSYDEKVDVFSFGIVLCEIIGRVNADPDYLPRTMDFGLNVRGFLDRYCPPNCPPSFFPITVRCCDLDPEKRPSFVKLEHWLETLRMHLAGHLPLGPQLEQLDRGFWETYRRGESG

[1] = Plasma pharmacokinetics studies on rats; settings: rats; for AUC (iv) / Cl (iv) / T1/2 (iv) / Yd (iv) / Cmax: iv dosing 1 mg/kg; for F (%) (po): po dosing 2 mg/kg; for Cmax: read-out: Cmax (iv)
Procedure: In vivo pharmacokinetics (PK) studies were conducted for selected compounds during the whole optimization at various stages in order to identify structural elements that are favorable for in vivo applications, and/or to evaluate the feasibility of optimized Limk inhibitors for animal studies.

ROCK-I = ROCK-I (Homo sapiens, UniProt Q13464); experiment: ROCK-I biochemical counter-screen; settings: Table 6; read-out: Biochemical Inhibition IC50 (nM) ROCK-I
Sequence of ROCK-I (Q13464 whole entry, species assumed): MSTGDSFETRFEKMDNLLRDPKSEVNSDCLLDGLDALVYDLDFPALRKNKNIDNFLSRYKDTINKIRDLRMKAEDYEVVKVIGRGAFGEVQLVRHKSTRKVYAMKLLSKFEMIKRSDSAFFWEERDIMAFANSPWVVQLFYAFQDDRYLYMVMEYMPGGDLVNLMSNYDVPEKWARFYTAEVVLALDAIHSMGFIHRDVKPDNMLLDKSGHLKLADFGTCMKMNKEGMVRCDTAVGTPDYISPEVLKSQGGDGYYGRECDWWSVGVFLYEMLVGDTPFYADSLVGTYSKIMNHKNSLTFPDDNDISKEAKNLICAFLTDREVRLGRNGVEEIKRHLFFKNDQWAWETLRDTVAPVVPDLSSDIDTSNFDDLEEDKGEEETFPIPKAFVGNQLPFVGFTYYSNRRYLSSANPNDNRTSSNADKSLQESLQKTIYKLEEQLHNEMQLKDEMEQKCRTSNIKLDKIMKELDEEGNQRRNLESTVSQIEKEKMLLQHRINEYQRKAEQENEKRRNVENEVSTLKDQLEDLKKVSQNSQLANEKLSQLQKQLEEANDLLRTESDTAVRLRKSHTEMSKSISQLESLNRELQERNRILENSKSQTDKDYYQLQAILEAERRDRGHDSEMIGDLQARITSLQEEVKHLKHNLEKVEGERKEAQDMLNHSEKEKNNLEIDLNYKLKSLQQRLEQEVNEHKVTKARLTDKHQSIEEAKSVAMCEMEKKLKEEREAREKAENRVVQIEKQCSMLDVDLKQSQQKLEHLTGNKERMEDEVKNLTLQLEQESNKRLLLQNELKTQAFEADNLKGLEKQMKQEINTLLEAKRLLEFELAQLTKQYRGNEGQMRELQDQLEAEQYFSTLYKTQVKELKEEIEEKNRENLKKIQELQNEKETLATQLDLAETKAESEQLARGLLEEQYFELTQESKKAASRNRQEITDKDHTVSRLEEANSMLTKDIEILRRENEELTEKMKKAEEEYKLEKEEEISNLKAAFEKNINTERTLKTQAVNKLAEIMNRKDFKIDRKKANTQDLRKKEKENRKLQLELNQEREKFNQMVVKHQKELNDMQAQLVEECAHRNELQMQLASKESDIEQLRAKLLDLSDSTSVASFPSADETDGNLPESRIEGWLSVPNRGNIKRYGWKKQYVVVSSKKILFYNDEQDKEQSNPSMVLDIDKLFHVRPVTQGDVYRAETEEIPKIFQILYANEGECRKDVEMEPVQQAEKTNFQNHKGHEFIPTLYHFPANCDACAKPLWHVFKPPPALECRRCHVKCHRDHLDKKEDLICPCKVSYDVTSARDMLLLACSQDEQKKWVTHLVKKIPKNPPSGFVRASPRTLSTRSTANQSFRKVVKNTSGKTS

P450 2C9 = P450 2C9 (Homo sapiens, UniProt P11712); experiment: P450 inhibition at 10 μM; assay type: in vitro ADME
Sequence of P450 2C9 (P11712 whole entry): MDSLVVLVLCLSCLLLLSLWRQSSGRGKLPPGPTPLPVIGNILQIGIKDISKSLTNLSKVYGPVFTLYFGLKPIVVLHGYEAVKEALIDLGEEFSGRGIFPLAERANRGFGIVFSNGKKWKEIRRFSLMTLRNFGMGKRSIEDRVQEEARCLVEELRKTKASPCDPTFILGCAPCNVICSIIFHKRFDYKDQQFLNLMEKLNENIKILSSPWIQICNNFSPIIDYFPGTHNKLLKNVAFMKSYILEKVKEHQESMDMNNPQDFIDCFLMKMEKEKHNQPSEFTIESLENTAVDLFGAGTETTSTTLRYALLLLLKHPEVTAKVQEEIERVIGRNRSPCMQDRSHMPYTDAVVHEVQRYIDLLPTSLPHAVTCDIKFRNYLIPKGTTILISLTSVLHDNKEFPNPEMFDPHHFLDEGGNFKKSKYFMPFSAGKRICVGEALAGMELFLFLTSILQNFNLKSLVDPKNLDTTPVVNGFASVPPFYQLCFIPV

P450 2D6 = P450 2D6 (Homo sapiens, UniProt P10635); experiment: P450 inhibition at 10 μM; assay type: in vitro ADME
Sequence of P450 2D6 (P10635 whole entry): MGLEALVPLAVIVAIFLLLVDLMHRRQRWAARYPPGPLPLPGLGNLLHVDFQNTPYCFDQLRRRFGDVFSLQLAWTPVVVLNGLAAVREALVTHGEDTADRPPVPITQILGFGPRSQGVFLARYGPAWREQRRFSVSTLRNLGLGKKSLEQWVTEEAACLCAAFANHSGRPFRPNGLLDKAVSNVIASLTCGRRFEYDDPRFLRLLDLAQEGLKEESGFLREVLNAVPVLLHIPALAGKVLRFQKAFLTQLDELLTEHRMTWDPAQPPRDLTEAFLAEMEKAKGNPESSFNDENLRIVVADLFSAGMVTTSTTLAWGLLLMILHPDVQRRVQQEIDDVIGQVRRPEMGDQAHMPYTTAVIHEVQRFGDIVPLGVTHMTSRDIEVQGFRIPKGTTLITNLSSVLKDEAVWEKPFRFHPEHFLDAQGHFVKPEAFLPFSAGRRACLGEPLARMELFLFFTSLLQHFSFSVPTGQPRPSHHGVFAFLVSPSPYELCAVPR

P450 3A4 = P450 3A4 (Homo sapiens, UniProt P08684); experiment: P450 inhibition at 10 μM; assay type: in vitro ADME
Sequence of P450 3A4 (P08684 whole entry): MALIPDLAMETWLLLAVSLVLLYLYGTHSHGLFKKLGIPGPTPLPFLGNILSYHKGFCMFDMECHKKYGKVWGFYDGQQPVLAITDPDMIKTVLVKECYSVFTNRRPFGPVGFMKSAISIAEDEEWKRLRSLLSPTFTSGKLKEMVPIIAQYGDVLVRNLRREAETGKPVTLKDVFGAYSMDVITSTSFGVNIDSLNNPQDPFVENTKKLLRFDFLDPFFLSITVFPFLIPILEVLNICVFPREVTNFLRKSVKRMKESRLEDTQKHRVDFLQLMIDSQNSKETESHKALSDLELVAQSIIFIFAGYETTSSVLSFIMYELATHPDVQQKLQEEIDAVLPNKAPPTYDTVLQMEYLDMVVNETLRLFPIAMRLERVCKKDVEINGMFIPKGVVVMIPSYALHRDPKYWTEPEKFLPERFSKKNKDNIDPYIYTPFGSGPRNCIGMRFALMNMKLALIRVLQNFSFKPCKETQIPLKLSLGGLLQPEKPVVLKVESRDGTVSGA

[2] = Microsomal stability, human liver microsomes; assay type: in vitro ADME
[3] = Microsomal stability, rat liver microsomes; assay type: in vitro ADME; settings: rat liver microsomes
P450 1A2 = target: T1, P450 1A2 (Homo sapiens, UniProt P05177); settings: 10 μM
T1 sequence (P05177 1-516): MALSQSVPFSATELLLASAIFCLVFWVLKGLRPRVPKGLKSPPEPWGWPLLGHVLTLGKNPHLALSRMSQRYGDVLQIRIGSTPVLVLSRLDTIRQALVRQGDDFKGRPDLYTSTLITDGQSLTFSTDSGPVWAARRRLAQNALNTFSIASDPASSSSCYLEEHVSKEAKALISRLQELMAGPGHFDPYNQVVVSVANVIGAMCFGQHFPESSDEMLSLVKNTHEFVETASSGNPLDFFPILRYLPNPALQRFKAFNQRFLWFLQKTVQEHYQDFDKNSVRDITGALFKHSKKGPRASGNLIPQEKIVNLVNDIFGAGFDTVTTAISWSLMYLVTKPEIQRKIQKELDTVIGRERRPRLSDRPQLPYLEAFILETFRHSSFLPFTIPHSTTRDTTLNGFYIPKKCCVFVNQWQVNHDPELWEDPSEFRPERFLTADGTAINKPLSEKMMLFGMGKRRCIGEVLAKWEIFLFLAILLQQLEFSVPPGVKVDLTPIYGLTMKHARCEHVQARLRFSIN

[4] = Table 1, means of ≥2 experiments, read-out: IC50 (nM) ROCK-II
[5] = Table 1, means of ≥2 experiments, read-out: IC50 (nM) Limk1
[6] = Table 3, means of ≥2 experiments, read-out: IC50 (nM) ROCK-II
[7] = Table 3, means of ≥2 experiments, read-out: IC50 (nM) Limk1
[8] = Table 4, means of ≥2 experiments, read-out: IC50 (nM) ROCK-II
[9] = Table 4, means of ≥2 experiments, read-out: IC50 (nM) Limk1

Sequence of ROCK-II (O75116 whole entry, species assumed): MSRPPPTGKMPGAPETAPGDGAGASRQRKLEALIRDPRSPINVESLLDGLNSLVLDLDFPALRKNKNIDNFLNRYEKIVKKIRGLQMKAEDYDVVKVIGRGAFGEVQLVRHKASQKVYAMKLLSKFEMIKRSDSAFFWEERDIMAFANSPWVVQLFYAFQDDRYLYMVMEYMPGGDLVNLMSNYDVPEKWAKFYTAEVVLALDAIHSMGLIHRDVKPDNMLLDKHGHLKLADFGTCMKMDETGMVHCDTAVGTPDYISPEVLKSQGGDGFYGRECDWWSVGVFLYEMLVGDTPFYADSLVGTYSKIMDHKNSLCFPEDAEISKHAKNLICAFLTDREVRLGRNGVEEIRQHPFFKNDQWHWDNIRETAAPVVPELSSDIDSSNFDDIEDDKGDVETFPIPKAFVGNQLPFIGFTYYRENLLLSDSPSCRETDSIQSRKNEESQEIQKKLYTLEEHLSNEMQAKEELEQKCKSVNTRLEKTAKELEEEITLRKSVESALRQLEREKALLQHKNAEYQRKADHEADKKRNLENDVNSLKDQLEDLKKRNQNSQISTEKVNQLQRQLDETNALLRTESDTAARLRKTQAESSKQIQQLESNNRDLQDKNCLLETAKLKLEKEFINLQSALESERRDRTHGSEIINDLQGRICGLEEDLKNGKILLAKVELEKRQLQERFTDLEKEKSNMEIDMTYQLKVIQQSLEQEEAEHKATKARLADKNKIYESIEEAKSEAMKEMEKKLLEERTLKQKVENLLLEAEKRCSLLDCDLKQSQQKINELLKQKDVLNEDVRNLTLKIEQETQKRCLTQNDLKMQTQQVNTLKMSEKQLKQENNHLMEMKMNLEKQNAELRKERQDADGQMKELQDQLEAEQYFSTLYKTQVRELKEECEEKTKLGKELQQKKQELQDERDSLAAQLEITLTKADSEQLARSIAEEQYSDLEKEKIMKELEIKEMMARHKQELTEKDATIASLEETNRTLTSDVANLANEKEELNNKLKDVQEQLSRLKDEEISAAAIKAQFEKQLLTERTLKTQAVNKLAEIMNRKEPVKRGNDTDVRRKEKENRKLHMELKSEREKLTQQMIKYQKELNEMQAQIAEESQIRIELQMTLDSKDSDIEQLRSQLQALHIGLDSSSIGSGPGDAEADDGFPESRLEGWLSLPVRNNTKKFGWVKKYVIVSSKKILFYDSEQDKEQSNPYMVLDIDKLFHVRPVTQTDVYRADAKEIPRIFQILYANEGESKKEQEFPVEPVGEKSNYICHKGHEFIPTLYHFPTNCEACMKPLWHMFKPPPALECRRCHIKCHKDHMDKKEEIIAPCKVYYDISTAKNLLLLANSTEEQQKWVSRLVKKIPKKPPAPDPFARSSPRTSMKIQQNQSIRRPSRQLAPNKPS

## CC(C)NC(=O)c1cccc(NC(=O)Nc2ccc(-c3ncnc4[nH]ccc34)cc2)c1 [Compound 3, 3-(3-(4-(7H-pyrrolo[2,3-d]pyrimidin-4-yl)phenyl)ureido)-N-isopropylbenzamide]
ROCK-II; [4]
  IC50: 1360 nM
Limk1; read-out: Limk1 IC50
  IC50: 201 nM

## CC(C)NC(=O)c1cccc(NC(=O)Nc2ccc(-c3cn[nH]c3)cc2)c1 [Compound 7a, 3-(3-(4-(1H-pyrazol-4-yl)phenyl)ureido)-N-isopropylbenzamide]
ROCK-II; [4]
  IC50: 45 nM
Limk1; [5]
  IC50: > 10000 nM

## CC(C)NC(=O)c1cccc(NC(=O)Nc2ccc(-c3ccncc3)cc2)c1 [Compound 7b, N-Isopropyl-3-(3-(4-(pyridin-4-yl)phenyl)ureido)benzamide]
ROCK-II; [4]
  IC50: 90 nM
Limk1; [5]
  IC50: > 10000 nM

## CC(C)NC(=O)c1cccc(NC(=O)Nc2ccc(-c3ccnc(N)n3)cc2)c1 [Compound 7c, 3-(3-(4-(2-Aminopyrimidin-4-yl)phenyl)ureido)-N-isopropylbenzamide]
ROCK-II; [4]
  IC50: 166 nM
Limk1; [5]
  IC50: > 10000 nM

## Cc1c[nH]c2ncnc(-c3ccc(NC(=O)Nc4cccc(C(=O)NC(C)C)c4)cc3)c12 [Compound 7g, N-Isopropyl-3-(3-(4-(5-methyl-7H-pyrrolo[2,3-d]pyrimidin-4-yl)phenyl)ureido)benzamide]
[1]
  AUC (iv): 4.3 µM·h
  Cl (iv): 9.0 mL/min/kg
  T1/2 (iv): 1.0 h
  Yd (iv): 0.3 L/kg
  F (%) (po): 0%
  Cmax: 8.5 µM

## Cc1cc2c(-c3ccc(NC(=O)Nc4cccc(C(=O)NC(C)C)c4)cc3)ncnc2[nH]1 [Compound 7h, N-Isopropyl-3-(3-(4-(6-methyl-7H-pyrrolo[2,3-d]pyrimidin-4-yl)phenyl)ureido)benzamide]
ROCK-II; [4]
  IC50: > 10000 nM
Limk1; [5]
  IC50: 80 nM

## Cc1[nH]c2ncnc(-c3ccc(NC(=O)Nc4cccc(C(=O)NC(C)C)c4)cc3)c2c1C [Compound 7i, 3-(3-(4-(5,6-Dimethyl-7H-pyrrolo[2,3-d]pyrimidin-4-yl)phenyl)ureido)-N-isopropylbenzamide]
ROCK-II; [4]
  IC50: > 10000 nM
ROCK-I
  IC50: > 20000 nM
P450 2C9
  P450 % inh. at 10 μM 2C9: 42%
P450 2D6
  P450 % inh. at 10 μM 2D6: 34%
P450 3A4
  P450 % inh. at 10 μM 3A4: 42%
[2]
  Microsomal Stability t1/2 (min) Human: 47 min
[3]
  Microsomal Stability t1/2 (min) Rat: >120 min
P450 1A2
  P450 % inh. at 10 μM 1A2: 77%
Limk1; [5]
  IC50: 80 nM

## Cc1c[nH]c2ncnc(-c3ccc(NC(=O)Nc4cccc(C(=O)NC(C)C)c4)c(C(F)(F)F)c3)c12 [Compound 7j, N-Isopropyl-3-(3-(4-(5-methyl-7H-pyrrolo[2,3-d]pyrimidin-4-yl)-2-(trifluoromethyl)phenyl)ureido)-benzamide]
ROCK-II; read-out: ROCK-II IC50
  IC50: 976 nM
Limk1; read-out: Limk1 IC50
  IC50: 60 nM

## Cc1c[nH]c2ncnc(-c3ccc(NC(=O)Nc4cccc(C(=O)NC(C)C)c4)c(OCCN(C)C)c3)c12 [Compound 7l, 3-(3-(2-(2-(Dimethylamino)ethoxy)-4-(5-methyl-7H-pyrrolo[2,3-d]pyrimidin-4-yl)phenyl)ureido)-N-isopropylbenzamide]
ROCK-II; Table 2, means of ≥2 experiments, read-out: IC50 (nM) ROCK-II
  IC50: 7080 nM
Limk1; Table 2, means of ≥2 experiments, read-out: IC50 (nM) Limk1
  IC50: 710 nM

## Cc1c[nH]c2ncnc(-c3ccc(NC(=O)Nc4ccccc4)cc3)c12 [Compound 10a, 1-(4-(5-Methyl-7H-pyrrolo[2,3-d]pyrimidin-4-yl)phenyl)-3-phenylurea]
ROCK-II; read-out: ROCK-II IC50
  IC50: 2360 nM
[1]
  AUC (iv): 14.3 µM·h
  Cl (iv): 3.4 mL/min/kg
  T1/2 (iv): 1.6 h
  Yd (iv): 0.5 L/kg
  F (%) (po): 16%
  Cmax: 7 µM
Limk1; read-out: Limk1 IC50
  IC50: 142 nM

## Cc1c[nH]c2ncnc(-c3ccc(NC(=O)Nc4cccc(F)c4)cc3)c12 [Compound 10b, 1-(3-Fluorophenyl)-3-(4-(5-methyl-7H-pyrrolo[2,3-d]pyrimidin-4-yl)phenyl)urea]
ROCK-II; [6]
  IC50: 5420 nM
Limk1; read-out: Limk1 IC50
  IC50: 315 nM

## COc1ccccc1NC(=O)Nc1ccc(-c2ncnc3[nH]cc(C)c23)cc1 [Compound 10c, 1-(2-Methoxyphenyl)-3-(4-(5-methyl-7H-pyrrolo[2,3-d]pyrimidin-4-yl)phenyl)urea]
ROCK-II; [6]
  IC50: 6650 nM
Limk1; read-out: Limk1 IC50
  IC50: 283 nM

## COc1cccc(NC(=O)Nc2ccc(-c3ncnc4[nH]cc(C)c34)cc2)c1 [Compound 10d, 1-(3-Methoxyphenyl)-3-(4-(5-methyl-7H-pyrrolo[2,3-d]pyrimidin-4-yl)phenyl)urea]
ROCK-II; [6]
  IC50: 2570 nM
Limk1; [7]
  IC50: 75 nM

## COc1ccc(NC(=O)Nc2ccc(-c3ncnc4[nH]cc(C)c34)cc2)cc1 [Compound 10e, 1-(4-Methoxyphenyl)-3-(4-(5-methyl-7H-pyrrolo[2,3-d]pyrimidin-4-yl)phenyl)urea]
ROCK-II; [6]
  IC50: > 10000 nM
ROCK-II; read-out: ROCK-II IC50
  IC50: > 10000 nM

## Cc1c[nH]c2ncnc(-c3ccc(NC(=O)Nc4nccs4)cc3)c12 [Compound 10f, 1-[4-(5-Methyl-7H-pyrrolo[2,3-d]pyrimidin-4-yl)-phenyl]-3-thiazol-2-yl-urea]
ROCK-II; [6]
  IC50: 2290 nM
Limk1; [7]
  IC50: 203 nM

## Cc1c[nH]c2ncnc(-c3ccc(NC(=O)Nc4ccccn4)cc3)c12 [Compound 10g, 1-[4-(5-Methyl-7H-pyrrolo[2,3-d]pyrimidin-4-yl)-phenyl]-3-pyridin-2-yl-urea]
ROCK-II; [6]
  IC50: > 10000 nM
Limk1; [7]
  IC50: 4510 nM

## COc1ccc(NC(=O)N(C)c2ccc(-c3ncnc4[nH]cc(C)c34)cc2)cc1 [Compound 14a, 3-(4-Methoxyphenyl)-1-methyl-1-(4-(5-methyl-7H-pyrrolo[2,3-d]pyrimidin-4-yl)phenyl)urea]
Limk1; read-out: Limk1 IC50
  IC50: 1090 nM

## COc1ccc(NC(=O)N(CCN2CCCC2)c2ccc(-c3ncnc4[nH]cc(C)c34)cc2)cc1 [Compound 14b, 3-(4-Methoxyphenyl)-1-(4-(5-methyl-7H-pyrrolo[2,3-d]pyrimidin-4-yl)phenyl)-1-(2-(pyrrolidin-1-yl)ethyl)urea]
Limk1
  Limk1 inhibition: even lower Limk1 inhibitions

## COc1ccc(NC(=O)N(CCN2CCCCC2)c2ccc(-c3ncnc4[nH]cc(C)c34)cc2)cc1 [Compound 14c, 3-(4-Methoxyphenyl)-1-(4-(5-methyl-7H-pyrrolo[2,3-d]pyrimidin-4-yl)phenyl)-1-(2-(piperidin-1-yl)ethyl)urea]
Limk1
  Limk1 inhibition: even lower Limk1 inhibitions

## Cc1c[nH]c2ncnc(-c3ccc(NC(=O)N(CCO)c4ccccc4F)cc3)c12 [Compound 18c, 1-(2-Fluorophenyl)-1-(2-hydroxyethyl)-3-(4-(5-methyl-7H-pyrrolo[2,3-d]pyrimidin-4-yl)phenyl)urea]
ROCK-II; [8]
  IC50: 1600 nM

## Cc1c[nH]c2ncnc(-c3ccc(NC(=O)N(CCO)c4cccc(F)c4)cc3)c12 [Compound 18d, 1-(3-Fluorophenyl)-1-(2-hydroxyethyl)-3-(4-(5-methyl-7H-pyrrolo[2,3-d]pyrimidin-4-yl)phenyl)urea]
ROCK-II; [8]
  IC50: 1900 nM

## Cc1ccccc1N(CCO)C(=O)Nc1ccc(-c2ncnc3[nH]cc(C)c23)cc1 [Compound 18i, 1-(2-Hydroxyethyl)-3-(4-(5-methyl-7H-pyrrolo[2,3-d]pyrimidin-4-yl)phenyl)-1-o-tolylurea]
ROCK-II; [8]
  IC50: > 10000 nM

## Cc1cccc(N(CCO)C(=O)Nc2ccc(-c3ncnc4[nH]cc(C)c34)cc2)c1 [Compound 18j, 1-(2-Hydroxyethyl)-3-(4-(5-methyl-7H-pyrrolo[2,3-d]pyrimidin-4-yl)phenyl)-1-m-tolylurea]
ROCK-II; [8]
  IC50: 8940 nM
Limk1; [9]
  IC50: 151 nM

## COc1ccc(N(CCN)C(=O)Nc2ccc(-c3ncnc4[nH]cc(C)c34)cc2)cc1 [Compound 18o, 1-(2-Aminoethyl)-1-(4-methoxyphenyl)-3-(4-(5-methyl-7H-pyrrolo[2,3-d]pyrimidin-4-yl)phenyl)urea]
[1]
  AUC (iv): 1.1 µM·h
  Cl (iv): 36.0 mL/min/kg
  T1/2 (iv): 4.6 h
  Yd (iv): 6.0 L/kg
  F (%) (po): 0%
  Cmax: 2.2 µM
Limk1; [9]
  IC50: 27 nM

## COc1ccc(N(CCN(C)C)C(=O)Nc2ccc(-c3ncnc4[nH]cc(C)c34)cc2)cc1 [Compound 18q, 1-(2-(Dimethylamino)ethyl)-1-(4-methoxyphenyl)-3-(4-(5-methyl-7H-pyrrolo[2,3-d]pyrimidin-4-yl)phenyl)urea]
ROCK-II; [8]
  IC50: > 10000 nM
ROCK-II; read-out: ROCK-II IC50
  IC50: > 10000 nM
